Measurements: patent US11124500B2, “Disubstituted pyrazole compounds” (Eli Lilly and Company, priority 2019, dated 2021)

Experiments:
human KHK-C = human KHK-C (Homo sapiens (Human), UniProt P50053); experiment: KHK enzyme activity assay, human KHK-C (F1P production, RapidFire MS); format: biochemical; conditions: fructose 250 μM, ATP 150 μM; average ± SEM; read-out: hKHK-C IC50
Method: (§1) KHK Enzyme Activity Assay for Human KHK-C and Human KHK-A
(§2) The intrinsic potency for inhibition of KHK C or A activity may be measured using an enzymatic assay which measures the production of FIP. Compounds are prepared in DMSO and tested in a 10-point concentration curve, to create 3-fold serial dilutions of the compounds in a 96-well plate ranging from 20 μM to 1.02 nM. Enzyme is prepared in assay buffer [50 mM 4-(2-hydroxyethyl)piperazine-1-ethanesulfonic acid (HEPES), 10 mM potassium chloride, 100 mM magnesium chloride, 2 mM tris(2-carboxyethyl)phosphine (TCEP), 0.01% n-octyl glucoside] and incubated with compounds at RT for 15 min. The reaction is carried out in 100 μL volumes containing substrate concentrations of fructose (250 μM for KHK-C assay and 1.25 mM for KHK-A assay) and ATP (150 μM for both isoforms); which are further incubated at RT for 20 min. The reaction is then halted by the addition of stop buffer; consisting of 0.2% formic acid and 1 μg/ml ^13C6-fructose-6-phosphate (^13C6-F6P) internal standard. Plates are stored in −20° C. until RapidFire MS analysis.
(§3) RapidFire MS Analysis for Quantitation of F1P
(§4) An Agilent 300 RapidFire automated extraction system (Agilent, Santa Clara, Calif.) with three HPLC quaternary pumps is coupled to an Agilent 6495 triple quadrupole mass spectrometer (Agilent Technologies, Santa Clara, Calif.) equipped with an electrospray ionization (ESI) interface source. The RapidFire Mass Spec system is equipped with a reusable RapidFire C18 (type C) solid-phase extraction (SPE) cartridge (G9205 Å).
(§5) Solvent A, used for sample loading and washing, is 6 mM octylamine (Acros Organics 129495000) brought to pH 5.0 using acetic acid. Solvent B, used for sample elution, is 20% water in ACN containing 0.1% formic acid. Samples are sequentially analyzed by aspirating 10 μL onto the collection loop under vacuum directly from multiwell plates. The 10 μL of sample is loaded onto the C18 cartridge and washed using solvent A at a flow rate of 1.25 mL/min for 5000 ms. The retained analytes are then eluted to the mass spectrometer using solvent B at a flow rate of 1.25 mL/min for 5000 ms. The system is re-equilibrated using solvent at flow rate of 1.25 mL/min for 2000 ms.
(§6) The triple quadrupole mass spectrometer is equipped with an ESI source and analytes are monitored using selected reaction monitoring (SRM) in negative mode [M−H]−. F1P is monitored at m/z 259.02/96.9 and ^13C6-fructose-6-phosphate is monitored at m/z 264.99/97. The area ratio values for F1P is calculated using ^13C6-fructose-6-phospate as internal standard.

human KHK-A = human KHK-A (Homo sapiens (Human), UniProt P50053); experiment: KHK enzyme activity assay, human KHK-A (F1P production, RapidFire MS); format: biochemical; conditions: fructose 1.25 mM, ATP 150 μM; average ± SEM; read-out: hKHK-A IC50
Sequence of human KHK-A (P50053 other isoform, or with tags, fused parts or gaps): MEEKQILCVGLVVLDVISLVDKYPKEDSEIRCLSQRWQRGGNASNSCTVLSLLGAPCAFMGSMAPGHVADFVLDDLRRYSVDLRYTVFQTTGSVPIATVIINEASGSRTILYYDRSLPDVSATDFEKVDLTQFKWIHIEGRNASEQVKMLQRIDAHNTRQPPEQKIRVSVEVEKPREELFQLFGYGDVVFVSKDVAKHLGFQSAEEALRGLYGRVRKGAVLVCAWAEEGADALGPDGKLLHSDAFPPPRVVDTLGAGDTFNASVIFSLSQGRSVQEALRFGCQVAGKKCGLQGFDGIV
Method: as §1, §2, §3, §4, §5, §6

[1] = Pharmacokinetics in Sprague Dawley rats; format: in vivo; conditions: plasma, rat, fasted; for bioavailability: PO 2 or 3 mg/kg vs IV 1 mg/kg
Method: (§7) Liquid Chromatography with Tandem Mass Spectrometry (LC-MS/MS) Method for Pharmacokinetic Assays: Samples are extracted using a protein precipitation by adding 180 μL of MeOH:ACN (1:1, v/v) containing an internal standard to 50 μL of plasma. Samples are then diluted with MeOH:Water (1:1, v/v) to get concentrations within standard curve range. Diluted samples are analyzed by LC-MS/MS using a Sciex API 4000 triple quadrupole mass spectrometer (Applied Biosystems/MDS; Foster City, Calif.) equipped with a TurboIonSpray interface, and operated in positive ion mode. The analytes are chromatographically separated using a ECHELON C18 4 um 20×2.1 mm column. LC conditions are Water/1 M ammonium bicarbonate, (2000:10, v/v) (Mobile Phase A), and MeOH/1 M ammonium bicarbonate, (2000:10, v/v) (Mobile Phase B).
Pharmacokinetics in Sprague Dawley Rats
(§8) The compound is administered by a single oral (PO; 2 or 3 mg/kg; volume of 10 mL/kg) or intravenous (IV; 1 mg/kg; volume of 1 mL/kg) dose in vehicle. Blood is collected from each animal at multiple time points between 0 and up to 48 hours post-dosage. The plasma concentrations of Example 1 and Example 2 are determined by a LC-MS/MS method as described above.

Pharmacokinetics in dogs = format: in vivo; conditions: beagle, plasma, dog, fed; for bioavailability: PO 2 or 3 mg/kg vs IV 1 mg/kg
Method: as §7
as §8, with “2” for “10”, “72” for “48”

[2] = administered for 6 weeks, subjects with NAFLD; cited from earlier work

Sequence of human KHK-C (P50053 whole entry): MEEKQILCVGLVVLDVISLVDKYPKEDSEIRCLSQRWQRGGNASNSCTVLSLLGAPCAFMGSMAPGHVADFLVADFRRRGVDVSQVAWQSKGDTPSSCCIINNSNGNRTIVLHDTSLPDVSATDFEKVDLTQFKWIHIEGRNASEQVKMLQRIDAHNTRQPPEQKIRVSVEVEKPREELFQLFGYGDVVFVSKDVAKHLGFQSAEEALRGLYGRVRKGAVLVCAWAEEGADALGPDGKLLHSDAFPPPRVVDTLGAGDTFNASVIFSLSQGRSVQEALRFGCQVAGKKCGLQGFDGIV

IC50 (human KHK-C) [nM] | IC50 (human KHK-A) [nM] | Compound | further results
41.6 ± 47.1 | 24.9 ± 15.3 | C[C@H]1CCN1c1nc(-c2cnn(CC(=O)N3C[C@H](O)[C@@H](O)C3)c2)cc(C(F)(F)F)c1C#N [Example 23, 6-[1-[2-[(3S,4S)-3,4-Dihydroxypyrrolidin-1-yl]-2-oxo-ethyl]pyrazol-4-yl]-2-[(2S)-2-methylazetidin-1-yl]-4-(trifluoromethyl)pyridine-3-carbonitrile] | –
6.26 | 3.58 | C[C@H]1CCN1c1nc(-c2cnn(C3CCN(CCO)CC3)c2)cc(C(F)(F)F)c1C#N [Example 9, 6-[1-[1-(2-Hydroxyethyl)-4-piperidyl]pyrazol-4-yl]-2-[(2S)-2-methylazetidin-1-yl]-4-(trifluoromethyl)pyridine-3-carbonitrile] | –
6.06 | 9.99 | C[C@H]1CCN1c1nc(-c2cnn(CC(O)CO)c2)cc(C(F)(F)F)c1C#N (single isomer, unassigned; isomer 1) [Example 24a] | –
18.1 ± 4.85 | 6.02 ± 2.27 | C[C@H]1[C@H](O)CN1c1nc(-c2cnn(C3CCNCC3)c2)cc(C(F)(F)F)c1C#N [Example 7, 2-[(2S,3R)-3-Hydroxy-2-methyl-azetidin-1-yl]-6-[1-(4-piperidyl)pyrazol-4-yl]-4-(trifluoromethyl)pyridine-3-carbonitrile] | –
28.4 | 22.2 | C[C@H]1CCN1c1nc(-c2cnn(C3CCOCC3)c2)cc(C(F)(F)F)c1C#N [Example 26, 2-[(2S)-2-Methylazetidin-1-yl]-6-(1-tetrahydropyran-4-ylpyrazol-4-yl)-4-(trifluoromethyl)pyridine-3-carbonitrile] | –

More lines, now with the values behind:

Compound | IC50 (human KHK-C) [nM] | IC50 (human KHK-A) [nM] | further results
C[C@H]1CCN1c1nc(-c2cnn(CC(=O)N3CCNCC3)c2)cc(C(F)(F)F)n1 [Example 1, 2-[4-[2-[(2S)-2-Methylazetidin-1-yl]-6-(trifluoromethyl)pyrimidin-4-yl]pyrazol-1-yl]-1-piperazin-1-yl-ethanone] | 20.7 ± 3.88 | 24.2 ± 2.9 | bioavailability [1]: 83%; clearance ([1]; single IV dose 1 mg/kg): 5.86 mL/min/kg; half-life ([1]; single IV dose 1 mg/kg): 12.8 h; half-life ([1]; single PO dose 2 or 3 mg/kg): 12.9 h; bioavailability (Pharmacokinetics in dogs): 87%; clearance (Pharmacokinetics in dogs; single IV dose 1 mg/kg): 3.41 mL/min/kg; half-life (Pharmacokinetics in dogs; single IV dose 1 mg/kg): 28 h; half-life (Pharmacokinetics in dogs; single PO dose 2 or 3 mg/kg): 36.6 h
C[C@H]1CCN1c1nc(-c2cnn(C3CN(C)C3)c2)cc(C(F)(F)F)n1 [Example 34, 2-[(2S)-2-Methylazetidin-1-yl]-4-[1-(1-methylazetidin-3-yl)pyrazol-4-yl]-6-(trifluoromethyl)pyrimidine] | 3.71 ± 0.178 | 5.41 ± 6.13 | –
OC[C@H]1CCN1c1nc(-c2cnn([C@@H]3CCNC3)c2)cc(C(F)(F)F)n1 [Example 16, [(2R)-1-[4-[1-[(3R)-Pyrrolidin-3-yl]pyrazol-4-yl]-6-(trifluoromethyl)pyrimidin-2-yl]azetidin-2-yl]methanol] | 28 ± 17.3 | 30 ± 5.09 | –
OC[C@H]1CCN1c1nc(-c2cnn(C3CCNCC3)c2)cc(C(F)(F)F)n1 [Example 2, [(2R)-1-[4-[1-(4-Piperidyl)pyrazol-4-yl]-6-(trifluoromethyl)pyrimidin-2-yl]azetidin-2-yl]methanol] | 134 ± 43.1 | 98.2 ± 25 | bioavailability [1]: 95%; clearance ([1]; single IV dose 1 mg/kg): 56.4 mL/min/kg; half-life ([1]; single IV dose 1 mg/kg): 4.29 h; half-life ([1]; single PO dose 2 or 3 mg/kg): 5.12 h; bioavailability (Pharmacokinetics in dogs): ~100%; clearance (Pharmacokinetics in dogs; single IV dose 1 mg/kg): 19.6 mL/min/kg; half-life (Pharmacokinetics in dogs; single IV dose 1 mg/kg): 10.3 h; half-life (Pharmacokinetics in dogs; single PO dose 2 or 3 mg/kg): 9.79 h
CN1CC(n2cc(-c3cc(C(F)(F)F)nc(N4CC[C@@H]4CO)n3)cn2)C1 [Example 36, [(2R)-1-[4-[1-(1-Methylazetidin-3-yl)pyrazol-4-yl]-6-(trifluoromethyl)pyrimidin-2-yl]azetidin-2-yl]methanol] | 10 | 3.98 | –
C[C@H]1CCN1c1nc(N2C[C@@H]3[C@@H](CC(=O)O)[C@@H]3C2)cc(C(F)(F)F)n1 [PF-06835919] | – | – | whole liver fat (magnetic resonance imaging-proton density fat fraction) [2]: reduces whole liver fat
C[C@H]1CCN1c1nc(-c2cnn(C3CCNCC3)c2)cc(C(F)(F)F)n1 [Example 13, 2-[(2S)-2-Methylazetidin-1-yl]-4-[1-(4-piperidyl)pyrazol-4-yl]-6-(trifluoromethyl)pyrimidine] | 15.5 ± 20.4 | 7.69 ± 7.97 | –
N#Cc1c(C(F)(F)F)cc(-c2cnn(C3CCNCC3)c2)nc1N1CC[C@@H]1CO [Example 6, 2-[(2R)-2-(Hydroxymethyl)azetidin-1-yl]-6-[1-(4-piperidyl)pyrazol-4-yl]-4-(trifluoromethyl)pyridine-3-carbonitrile] | 25.7 ± 5.14 | 15.4 ± 5.05 | –
OC[C@H]1CCN1c1nc(-c2cnn(C3CNC3)c2)cc(C(F)(F)F)n1 [Example 3, [(2R)-1-[4-[1-(Azetidin-3-yl)pyrazol-4-yl]-6-(trifluoromethyl)pyrimidin-2-yl]azetidin-2-yl]methanol] | 41.9 ± 6.77 | 45.4 ± 29.5 | –
